Assay results published in the supplement of paper PMC10307832.

Tests used:
Test in all cases: relative viability (nuclei count vs DMSO), 5 days (fraction); higher = more cells survive
[1] = compound: CC1=CN=C(N=C1C2=CNC(=C2)C(=O)N[C@H](CO)C3=CC(=CC=C3)Cl)NC4=C(C=C(C=C4)F)Cl [VX-11e] + CCNC(=O)c1noc(-c2cc(C(C)C)c(O)cc2O)c1-c1ccc(CN2CCOCC2)cc1 [Luminespib] (partner 0.01 µM)
Summary of the method: (§1)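 Five library-drug doses in √10 steps were combined with a fixed anchor-drug dose, or a single drug was given alone, by pin tool to lung cancer cell lines in 1536-well plates the day after seeding. Nuclei were stained and counted after 5 days. Relative viability is the nuclei count in treated wells over that in vehicle wells, taken as the median of duplicate plates.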

[2] = compound: CC1=CN=C(N=C1C2=CNC(=C2)C(=O)N[C@H](CO)C3=CC(=CC=C3)Cl)NC4=C(C=C(C=C4)F)Cl [VX-11e] + CC(=O)c1c(C)c2cnc(Nc3ccc(N4CCNCC4)cn3)nc2n(C2CCCC2)c1=O [Palbociclib] (partner 0.5 µM)
Summary of the method: as §1

[3] = compound: CC1=CN=C(N=C1C2=CNC(=C2)C(=O)N[C@H](CO)C3=CC(=CC=C3)Cl)NC4=C(C=C(C=C4)F)Cl [VX-11e] + CS(=O)(=O)N1CCN(Cc2cc3nc(-c4cccc5[nH]ncc45)nc(N4CCOCC4)c3s2)CC1 [Pictilisib] (partner 1 µM)
Summary of the method: as §1

[4] = compound: CC1=CN=C(N=C1C2=CNC(=C2)C(=O)N[C@H](CO)C3=CC(=CC=C3)Cl)NC4=C(C=C(C=C4)F)Cl [VX-11e] + COc1cccc2cc(-c3nc([C@H]4CC[C@H](C(=O)O)CC4)n4ncnc(N)c34)[nH]c12 [OSI-027] (partner 0.5 µM)
Summary of the method: as §1

Cell Line: A-427
- relative viability ([1]; first compound 0.04 µM): 1.05
- relative viability ([1]; first compound 0.1265 µM): 0.865
- relative viability ([1]; first compound 0.4 µM): 0.642
- relative viability ([1]; first compound 1.265 µM): 0.687
- relative viability ([1]; first compound 4 µM): 0.483
- relative viability ([2]; first compound 0.04 µM): 0.553
- relative viability ([2]; first compound 0.1265 µM): 0.442
- relative viability ([2]; first compound 0.4 µM): 0.516
- relative viability ([2]; first compound 1.265 µM): 0.496
- relative viability ([2]; first compound 4 µM): 0.336
- relative viability ([3]; first compound 0.04 µM): 0.454
- relative viability ([3]; first compound 0.1265 µM): 0.468
- relative viability ([3]; first compound 0.4 µM): 0.535
- relative viability ([3]; first compound 1.265 µM): 0.422
- relative viability ([3]; first compound 4 µM): 0.154
- relative viability ([4]; first compound 0.04 µM): 0.334
- relative viability ([4]; first compound 0.1265 µM): 0.19
- relative viability ([4]; first compound 0.4 µM): 0.309
- relative viability ([4]; first compound 1.265 µM): 0.215
- relative viability ([4]; first compound 4 µM): 0.183

Cell Line: COR-L23
- relative viability ([1]; first compound 0.04 µM): 0.787
- relative viability ([1]; first compound 0.1265 µM): 0.577
- relative viability ([1]; first compound 0.4 µM): 0.5
- relative viability ([1]; first compound 1.265 µM): 0.532
- relative viability ([1]; first compound 4 µM): 0.234
- relative viability ([2]; first compound 0.04 µM): 0.376
- relative viability ([2]; first compound 0.1265 µM): 0.274
- relative viability ([2]; first compound 0.4 µM): 0.225
- relative viability ([2]; first compound 1.265 µM): 0.183
- relative viability ([2]; first compound 4 µM): 0.123
- relative viability ([3]; first compound 0.04 µM): 0.83
- relative viability ([3]; first compound 0.1265 µM): 0.72
- relative viability ([3]; first compound 0.4 µM): 0.52
- relative viability ([3]; first compound 1.265 µM): 0.382
- relative viability ([3]; first compound 4 µM): 0.184
- relative viability ([4]; first compound 0.04 µM): 0.733
- relative viability ([4]; first compound 0.1265 µM): 0.591
- relative viability ([4]; first compound 0.4 µM): 0.579
- relative viability ([4]; first compound 1.265 µM): 0.347
- relative viability ([4]; first compound 4 µM): 0.185

Cell Line: NCI-H596
- relative viability ([1]; first compound 0.04 µM): 0.898
- relative viability ([1]; first compound 0.1265 µM): 0.982
- relative viability ([1]; first compound 0.4 µM): 0.699
- relative viability ([1]; first compound 1.265 µM): 0.755
- relative viability ([1]; first compound 4 µM): 0.765
- relative viability ([3]; first compound 0.04 µM): 0.377
- relative viability ([3]; first compound 0.1265 µM): 0.429
- relative viability ([3]; first compound 0.4 µM): 0.378
- relative viability ([3]; first compound 1.265 µM): 0.431
- relative viability ([3]; first compound 4 µM): 0.319
- relative viability ([4]; first compound 0.04 µM): 0.518
- relative viability ([4]; first compound 0.1265 µM): 0.691
- relative viability ([4]; first compound 0.4 µM): 0.525
- relative viability ([4]; first compound 1.265 µM): 0.349
- relative viability ([4]; first compound 4 µM): 0.407

Cell Line: NCI-H2347
- relative viability ([1]; first compound 0.04 µM): 0.293
- relative viability ([1]; first compound 0.1265 µM): 0.548
- relative viability ([1]; first compound 0.4 µM): 0.323
- relative viability ([1]; first compound 1.265 µM): 0.269
- relative viability ([1]; first compound 4 µM): 0.366
- relative viability ([2]; first compound 0.04 µM): 0.475
- relative viability ([2]; first compound 0.1265 µM): 0.405
- relative viability ([2]; first compound 0.4 µM): 0.481
- relative viability ([2]; first compound 1.265 µM): 0.398
- relative viability ([2]; first compound 4 µM): 0.379
- relative viability ([3]; first compound 0.04 µM): 0.813
- relative viability ([3]; first compound 0.1265 µM): 0.662
- relative viability ([3]; first compound 0.4 µM): 0.491
- relative viability ([3]; first compound 1.265 µM): 0.36
- relative viability ([3]; first compound 4 µM): 0.298
- relative viability ([4]; first compound 0.04 µM): 0.418
- relative viability ([4]; first compound 0.1265 µM): 0.467
- relative viability ([4]; first compound 0.4 µM): 0.337
- relative viability ([4]; first compound 1.265 µM): 0.255
- relative viability ([4]; first compound 4 µM): 0.21

Cell Line: HCC-78
- relative viability ([2]; first compound 0.04 µM): 0.481
- relative viability ([2]; first compound 0.1265 µM): 0.359
- relative viability ([2]; first compound 0.4 µM): 0.466
- relative viability ([2]; first compound 1.265 µM): 0.501
- relative viability ([2]; first compound 4 µM): 0.431
- relative viability ([3]; first compound 0.04 µM): 0.23
- relative viability ([3]; first compound 0.1265 µM): 0.185
- relative viability ([3]; first compound 0.4 µM): 0.31
- relative viability ([3]; first compound 1.265 µM): 0.189
- relative viability ([3]; first compound 4 µM): 0.224
- relative viability ([4]; first compound 0.1265 µM): 0.364
- relative viability ([4]; first compound 0.4 µM): 0.395
- relative viability ([4]; first compound 1.265 µM): 0.376
- relative viability ([4]; first compound 4 µM): 0.393

Cell Line: NCI-H1648
- relative viability ([2]; first compound 0.1265 µM): 0.305
- relative viability ([2]; first compound 0.4 µM): 0.301
- relative viability ([2]; first compound 1.265 µM): 0.331
- relative viability ([2]; first compound 4 µM): 0.314
- relative viability ([4]; first compound 0.04 µM): 0.273
- relative viability ([4]; first compound 0.1265 µM): 0.238
- relative viability ([4]; first compound 0.4 µM): 0.29
- relative viability ([4]; first compound 1.265 µM): 0.245
- relative viability ([4]; first compound 4 µM): 0.241

Cell Line: SW 900
- relative viability ([1]; first compound 0.04 µM): 0.211
- relative viability ([1]; first compound 0.1265 µM): 0.186
- relative viability ([1]; first compound 0.4 µM): 0.174
- relative viability ([1]; first compound 1.265 µM): 0.175
- relative viability ([1]; first compound 4 µM): 0.173
- relative viability ([2]; first compound 0.04 µM): 0.421
- relative viability ([2]; first compound 0.1265 µM): 0.422
- relative viability ([2]; first compound 1.265 µM): 0.518
- relative viability ([2]; first compound 4 µM): 0.482
- relative viability ([4]; first compound 0.04 µM): 0.276
- relative viability ([4]; first compound 0.1265 µM): 0.448
- relative viability ([4]; first compound 0.4 µM): 0.12
- relative viability ([4]; first compound 1.265 µM): 0.304
- relative viability ([4]; first compound 4 µM): 0.246

Cell Line: NCI-H522
- relative viability ([1]; first compound 0.04 µM): 1.23
- relative viability ([1]; first compound 0.1265 µM): 1.28
- relative viability ([1]; first compound 0.4 µM): 1.05
- relative viability ([1]; first compound 1.265 µM): 0.82
- relative viability ([1]; first compound 4 µM): 0.832
- relative viability ([2]; first compound 0.04 µM): 0.782
- relative viability ([2]; first compound 0.1265 µM): 0.924
- relative viability ([2]; first compound 0.4 µM): 0.861
- relative viability ([2]; first compound 1.265 µM): 0.717
- relative viability ([2]; first compound 4 µM): 0.733
- relative viability ([4]; first compound 0.04 µM): 0.615
- relative viability ([4]; first compound 0.1265 µM): 0.683
- relative viability ([4]; first compound 0.4 µM): 0.556
- relative viability ([4]; first compound 1.265 µM): 0.613
- relative viability ([4]; first compound 4 µM): 0.572

Cell Line: A549
- relative viability ([3]; first compound 0.04 µM): 0.481
- relative viability ([3]; first compound 0.1265 µM): 0.475
- relative viability ([3]; first compound 0.4 µM): 0.316
- relative viability ([3]; first compound 1.265 µM): 0.0889
- relative viability ([3]; first compound 4 µM): 0.0408

Cell Line: HCC-366
- relative viability ([2]; first compound 0.04 µM): 0.385
- relative viability ([2]; first compound 0.1265 µM): 0.311
- relative viability ([2]; first compound 1.265 µM): 0.314
- relative viability ([2]; first compound 4 µM): 0.163
- relative viability ([3]; first compound 0.04 µM): 0.159
- relative viability ([3]; first compound 0.1265 µM): 0.101
- relative viability ([3]; first compound 0.4 µM): 0.15
- relative viability ([3]; first compound 1.265 µM): 0.12
- relative viability ([3]; first compound 4 µM): 0.081
- relative viability ([4]; first compound 0.04 µM): 0.811
- relative viability ([4]; first compound 0.1265 µM): 0.795
- relative viability ([4]; first compound 1.265 µM): 0.544
- relative viability ([4]; first compound 4 µM): 0.136

Cell Line: NCI-H1299
- relative viability ([3]; first compound 0.04 µM): 0.851
- relative viability ([3]; first compound 0.1265 µM): 0.821
- relative viability ([3]; first compound 0.4 µM): 0.681
- relative viability ([3]; first compound 1.265 µM): 0.262
- relative viability ([3]; first compound 4 µM): 0.119

Cell Line: Calu-6
- relative viability ([3]; first compound 0.04 µM): 1.03
- relative viability ([3]; first compound 0.1265 µM): 0.874
- relative viability ([3]; first compound 0.4 µM): 0.907
- relative viability ([3]; first compound 1.265 µM): 0.261
- relative viability ([3]; first compound 4 µM): 0.0991

Cell Line: NCI-H1563
- relative viability ([1]; first compound 0.04 µM): 0.522
- relative viability ([1]; first compound 0.1265 µM): 0.555
- relative viability ([1]; first compound 0.4 µM): 0.488
- relative viability ([1]; first compound 1.265 µM): 0.508
- relative viability ([1]; first compound 4 µM): 0.465
- relative viability ([3]; first compound 0.04 µM): 0.662
- relative viability ([3]; first compound 0.1265 µM): 0.538
- relative viability ([3]; first compound 0.4 µM): 0.559
- relative viability ([3]; first compound 1.265 µM): 0.656
- relative viability ([3]; first compound 4 µM): 0.625
- relative viability ([4]; first compound 0.04 µM): 0.729
- relative viability ([4]; first compound 0.1265 µM): 0.697
- relative viability ([4]; first compound 0.4 µM): 0.705
- relative viability ([4]; first compound 1.265 µM): 0.822
- relative viability ([4]; first compound 4 µM): 0.789
